Where only a bound is given, the exact number is not on record here.

By IC50 is commonly meant the concentration at which inhibition is half-maximal. One may read the Ki as the equilibrium dissociation constant of an inhibitor or competing ligand from its target.

Chain of memapsin 2 (Homo sapiens, UniProt P56817) (P56817 46-501): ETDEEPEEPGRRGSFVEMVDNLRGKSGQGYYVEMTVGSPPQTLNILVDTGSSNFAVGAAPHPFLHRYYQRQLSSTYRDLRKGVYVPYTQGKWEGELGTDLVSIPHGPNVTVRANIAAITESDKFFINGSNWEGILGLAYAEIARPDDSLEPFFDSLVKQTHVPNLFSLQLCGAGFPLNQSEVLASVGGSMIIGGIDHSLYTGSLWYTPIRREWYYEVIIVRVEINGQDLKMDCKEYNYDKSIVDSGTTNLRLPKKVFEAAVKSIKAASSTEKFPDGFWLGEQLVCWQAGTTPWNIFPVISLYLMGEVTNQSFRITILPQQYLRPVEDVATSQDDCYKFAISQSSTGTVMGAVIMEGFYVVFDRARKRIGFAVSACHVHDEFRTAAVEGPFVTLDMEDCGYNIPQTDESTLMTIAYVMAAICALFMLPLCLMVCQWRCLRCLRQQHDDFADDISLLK

The target of one assay is T1, memapsin 2 (Cricetulus griseus, UniProt G3IAK4).
T1 construct: endogenous in cells; host or cells: Chinese hamster ovary cells over-expressing human APP695 (London and Swedish mutations)
T1 sequence (G3IAK4 22-501): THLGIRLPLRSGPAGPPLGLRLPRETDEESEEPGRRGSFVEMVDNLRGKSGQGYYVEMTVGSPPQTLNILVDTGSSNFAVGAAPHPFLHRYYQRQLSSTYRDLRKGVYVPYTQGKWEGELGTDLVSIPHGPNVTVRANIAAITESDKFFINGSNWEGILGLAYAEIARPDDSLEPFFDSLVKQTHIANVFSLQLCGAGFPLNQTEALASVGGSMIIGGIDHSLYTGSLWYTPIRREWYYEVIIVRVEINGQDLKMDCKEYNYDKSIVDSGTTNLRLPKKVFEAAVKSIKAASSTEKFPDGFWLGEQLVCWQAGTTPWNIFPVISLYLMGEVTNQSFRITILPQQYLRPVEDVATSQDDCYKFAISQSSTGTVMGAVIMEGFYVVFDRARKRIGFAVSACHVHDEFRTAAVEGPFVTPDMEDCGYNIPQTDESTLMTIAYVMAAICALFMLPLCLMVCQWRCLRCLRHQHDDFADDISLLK
Description: Cellular Aβ IC50 determination (Aβ40 sandwich ELISA). Format: cell-based. The conditions noted are these: symbol in parentheses; Chinese hamster ovary cells over-expressing human APP695 (London and Swedish mutations), Aβ40, 24 h; read-out: Activity against memapsin 2: (IC50). The procedure:
Cellular Aβ C50 Determinations. The potency of compounds against memapsin 2 catalytic activity is determined in a cellular assay of Aβ production. […] Chinese hamster ovary cells that over-express human APP695 with the London and Swedish mutations are seeded in multi-well plates at 10% confluency. Compounds are dissolved in DMSO to concentrations near 1 mM, and diluted into culture media to a final concentration near 4 μM (final 0.4% DMSO). Compounds are diluted serially and applied to cells in multi-well plates 48 h after seeding. Incubation is continued in 5% CO2 at 37 degrees C. for 24 h. Aliquots are removed and assayed for Aβ40 content using a sandwich ELISA (BioSource International). Amount of Aβ40 over the range of concentration of compounds, relative to control incubations, are fit to a 4-parameter IC50 model.
On to `CN(CCC[C@@H](c1ccccc1)N1Cc2cc(Oc3ccccc3)ccc2N=C1N)C1CCCCC1` [Inhibitor 0418], for which the IC50 is less than 5000 nM.
Still for that read-out and setting: the value for `CN(CCC[C@@H](C1CCCCC1)N1Cc2cc(Oc3ccccc3)ccc2N=C1N)C1CCCCC1` [Inhibitor 0188] was less than 50 nM; that for `CN(C(=O)OC[C@@H](c1ccccc1)N1Cc2cc(Oc3ccccc3)ccc2N=C1N)C1CCCCC1` [Inhibitor 0328] was less than 5000 nM.
On to `CN(C(=O)OC[C@@H](C1CCCCC1)N1Cc2cc(Oc3ccccc3)ccc2N=C1N)C1CCCCC1` [Inhibitor 0458], for which the IC50 was greater than 5000 nM.
On the same count and under the same terms, the result for `NC1=Nc2ccc(Oc3ccccc3)cc2CN1[C@@H](CCN(Cc1ccccc1)Cc1ccccc1)C1CCCCC1` [Inhibitor 0448] reads less than 5000 nM; that for `CN(C(=O)OCC(C1CCOC1)N1Cc2cc(Oc3ccccc3)ccc2N=C1N)C1CCCCC1` (centres unmarked) [Inhibitor 0548], less than 5000 nM; that for `CN(C(=O)OC[C@@H](C1CCCOC1)N1Cc2cc(Oc3ccccc3)ccc2N=C1N)C1CCCCC1` (some centres unmarked) [Inhibitor 0318], less than 5000 nM.

A further assay addresses memapsin 2 (Homo sapiens, UniProt P56817). Briefly: Inhibition of memapsin 2 catalytic activity toward fluorogenic substrate FS-2. The conditions noted are these: pH 4, 37° C., 20 minutes pre-incubation, tight-binding model; symbol outside parentheses; read-out: Activity against memapsin 2: Ki. Format: biochemical. The procedure:
Inhibition Of Memapsin 2. […] Potency of compounds were determined by measurement of their inhibition of memapsin 2 catalytic activity toward a fluorescent substrate. […] Briefly, assays were performed at pH 4, 37° C., by pre-incubation of memapsin 2 enzyme with compound for 20 minutes. Activity measure was initiated by addition of a fluorogenic substrate FS-2 (Bachem Americas, Torrance, Calif.). Fluorescent signal increase over time was measured as a rate of hydrolysis of the peptide substrate. […]
On to `Cc1nc(CCN(CCC[C@@H](C2CCCCC2)N2Cc3cc(Oc4ccccc4)ccc3N=C2N)C2CCCCC2)co1` [Inhibitor 0909], for which the Ki is less than 500 nM.
On the same count and under the same terms, the result for `CN(CCC[C@@H](C1CCCCC1)N1Cc2cc(Oc3ccccc3)ccc2N=C1N)c1ccccc1` [Inhibitor 0538] reads less than 500 nM.
For the compound `COC[C@@H](NC(=O)OC[C@@H](C1CCCCC1)N1Cc2cc(Oc3ccccc3)ccc2N=C1N)C(=O)OC` [Inhibitor 0469], the Ki was less than 500 nM.
The same measure, in the same setting: the result for `CN(CCC[C@@H](c1ccccc1)N1Cc2cc(Oc3ccccc3)ccc2N=C1N)C1CCCCC1` [Inhibitor 0418] reads less than 5000 nM; that for `CN(CCC[C@@H](C1CCCCC1)N1Cc2cc(Oc3ccccc3)ccc2N=C1N)C1CCCCC1` [Inhibitor 0188], less than 50 nM.
For the compound `Cc1csc(CN(C(=O)OC[C@@H](C2CCCCC2)N2Cc3cc(Oc4ccccc4)ccc3N=C2N)C2CCCCC2)n1` [Inhibitor 119], the inhibition constant (Ki) was less than 500 nM.
Turning to `Cc1csc(CN(CCC[C@@H](C2CCCCC2)N2Cc3cc(Oc4ccccc4)ccc3N=C2N)C2CCCCC2)n1` [Inhibitor 409], the Ki is less than 500 nM.
The same measure, in the same setting: the value for `COCc1nc(CN(CCC[C@@H](C2CCCCC2)N2Cc3cc(Oc4ccccc4)ccc3N=C2N)C2CCCCC2)cs1` [Inhibitor 1099] was less than 500 nM.
Turning to `CN(CCCC(C1CCOC1)N1Cc2cc(Oc3ccccc3)ccc2N=C1N)C1CCCCC1` (centres unmarked) [Inhibitor 0568], the Ki is less than 500 nM.
Take `COCC(COC)N(C)C(=O)OC[C@@H](C1CCCCC1)N1Cc2cc(Oc3ccccc3)ccc2N=C1N` [Inhibitor 1139]: the Ki was less than 5000 nM.
Take `COC[C@H](NC(=O)OC[C@@H](C1CCCCC1)N1Cc2cc(Oc3ccccc3)ccc2N=C1N)C(=O)OC` [Inhibitor 0989]: the Ki is less than 500 nM.
Consider `NC1=Nc2ccc(Oc3ccccc3)cc2CN1[C@@H](CCNCC1CCCCC1)C1CCCCC1` [Inhibitor 0428], for which the inhibition constant Ki is less than 500 nM.
Consider `Cc1nc(CN(C(=O)OC[C@@H](C2CCCCC2)N2Cc3cc(Oc4ccccc4)ccc3N=C2N)C2CCCCC2)c(C)o1` [Inhibitor 908], for which the Ki was less than 500 nM.
On the same count and under the same terms, the value for `Cc1nc(CN(C(=O)OC[C@@H](C2CCCCC2)N2Cc3cc(Oc4ccccc4)ccc3N=C2N)C2CCCCC2)co1` [Inhibitor 0519] was less than 5000 nM; that for `CN(C(=O)OC[C@@H](c1ccccc1)N1Cc2cc(Oc3ccccc3)ccc2N=C1N)C1CCCCC1` [Inhibitor 0328] was less than 5000 nM; that for `Cc1nc(CN(CCC[C@@H](C2CCCCC2)N2Cc3cc(Oc4ccccc4)ccc3N=C2N)C2CCCCC2)c(C)o1` [Inhibitor 0509] was less than 500 nM.
The same measure, in the same setting: the result for `Cc1nc(CN(CCC[C@@H](C2CCCCC2)N2Cc3cc(Oc4cccnc4)ccc3N=C2N)C2CCCCC2)cs1` [Inhibitor 1209] reads less than 5000 nM; that for `CN(C(=O)OC[C@@H](C1CCCCC1)N1Cc2cc(Oc3ccccc3)ccc2N=C1N)C1CCCCC1` [Inhibitor 0458], less than 50 nM; that for `NC1=Nc2ccc(Oc3ccccc3)cc2CN1[C@@H](CCCN(Cc1ccoc1)C1CCCCC1)C1CCCCC1` [Inhibitor 1379], less than 500 nM.
The same measure, in the same setting: the result for `NC1=Nc2ccc(Oc3ccccc3)cc2CN1[C@@H](COC(=O)NC1CCCCC1O)C1CCCCC1` (some centres unmarked) [Inhibitor 0668] reads less than 500 nM; that for `Cc1nc(CN(CCC[C@@H](C2CCCCC2)N2Cc3cc(Oc4ccccn4)ccc3N=C2N)C2CCCCC2)cs1` [Inhibitor 1219], less than 5000 nM.
For `NC1=Nc2ccc(Oc3ccccc3)cc2CN1[C@@H](CCN(Cc1ccccc1)Cc1ccccc1)C1CCCCC1` [Inhibitor 0448], the Ki was less than 500 nM.
For the compound `CN(C)CC[C@@H](C1CCCCC1)N1Cc2cc(Oc3ccccc3)ccc2N=C1N` [Inhibitor 0618], the Ki was less than 5000 nM.
Same read-out and setting: the value for `CC(NCC[C@@H](C1CCCCC1)N1Cc2cc(Oc3ccccc3)ccc2N=C1N)c1ccccc1` (some centres unmarked) [Inhibitor 0438] was less than 500 nM; that for `CN(C(=O)OCC(C1CCOC1)N1Cc2cc(Oc3ccccc3)ccc2N=C1N)C1CCCCC1` (centres unmarked) [Inhibitor 0548] was less than 500 nM; that for `Cc1nc(CCN(CCC[C@@H](C2CCCCC2)N2Cc3cc(Oc4ccccc4)ccc3N=C2N)C2CCCCC2)cs1` [Inhibitor 0809] was less than 500 nM.
The same measure, in the same setting: the value for `NC1=Nc2ccc(Oc3ccccc3)cc2CN1[C@@H](COC(=O)NC1CCCCC1)C1CCCCC1` [Inhibitor 0658] was less than 500 nM; that for `NC1=Nc2ccc(Oc3ccccc3)cc2CN1[C@@H](CCCN(Cc1cscn1)C1CCCCC1)C1CCCCC1` [Inhibitor 0979] was less than 500 nM.
`Cc1nc(CN(CCC[C@@H](C2CCCCC2)N2Cc3cc(Oc4ccccc4)ccc3N=C2N)C2CCCCC2)cs1` [Inhibitor 0589]: the Ki was less than 500 nM.
Still for that read-out and setting: the result for `Cc1nc(CN(C(=O)OC[C@@H](C2CCCCC2)N2Cc3cc(Oc4ccccc4)ccc3N=C2N)C2CCCCC2)cs1` [Inhibitor 0579] reads less than 5000 nM; that for `Cc1nc(C)c(CN(CCC[C@@H](C2CCCCC2)N2Cc3cc(Oc4ccccc4)ccc3N=C2N)C2CCCCC2)o1` [Inhibitor 0789], less than 500 nM; that for `Cc1[nH]ncc1CN(CCC[C@@H](C1CCCCC1)N1Cc2cc(Oc3ccccc3)ccc2N=C1N)C1CCCCC1` [Inhibitor 1519], less than 50 nM.
`CN(CCC[C@@H](C1CCCOC1)N1Cc2cc(Oc3ccccc3)ccc2N=C1N)C1CCCCC1` (some centres unmarked) [Inhibitor 0408]: the Ki was less than 500 nM.
Turning to `Cc1ncoc1CN(CCC[C@@H](C1CCCCC1)N1Cc2cc(Oc3ccccc3)ccc2N=C1N)C1CCCCC1` [Inhibitor 0929], the Ki was less than 500 nM.
Still for that read-out and setting: the result for `CN(C(=O)OC[C@@H](C1CCCOC1)N1Cc2cc(Oc3ccccc3)ccc2N=C1N)C1CCCCC1` (some centres unmarked) [Inhibitor 0318] reads less than 500 nM; that for `CN(CC[C@@H](C1CCCCC1)N1Cc2cc(Oc3ccccc3)ccc2N=C1N)Cc1ccccc1` [Inhibitor 0628], less than 500 nM.
Still for that read-out and setting: the result for `Cn1cc(CN(CCC[C@@H](C2CCCCC2)N2Cc3cc(Oc4ccccc4)ccc3N=C2N)C2CCCCC2)cn1` [Inhibitor 1049] reads less than 500 nM; that for `CC(C)c1nc(CN(CCC[C@@H](C2CCCCC2)N2Cc3cc(Oc4ccccc4)ccc3N=C2N)C2CCCCC2)cs1` [Inhibitor 0659], less than 500 nM; that for `NC1=Nc2ccc(Oc3ccccc3)cc2CN1[C@@H](CCCN(Cc1cn[nH]c1)C1CCCCC1)C1CCCCC1` [Inhibitor 1509], less than 50 nM.
Same read-out and setting: the value for `CN(C(=O)OC[C@@H](C1CCCCC1)N1Cc2cc(Oc3ccccc3)ccc2N=C1N)C1CCCCC1O` (some centres unmarked) [Inhibitor 0648] was less than 500 nM.

The values are drawn from patent US8394807B2, “Quinazoline inhibitors of BACE 1 and methods of using” (Purdue Research Foundation, priority 2008, dated 2013).
